The values below come from patent publication US4310682A, “Halo-salicylanilide” (priority 1979, dated 1982).

What all share (type): cell-based
Test [1] relates to Trichophyton rubrum IFO 9185. Kind of test: MIC, Sabouraud agar medium containing the compound. To be noted: fungus No. 7, 20° C., 14 days. The protocol: (§1) In order to test antifungal and bactericidal activity of halo-salicylanilide obtained in above mentioned Examples, following bacteria and fungi are employed.
No. 7 Trichophyton rubrum IFO 9185
(§2) Bacteria No. 1 to No. 4 are respectively cultured in Hart Infusion bouillon medium at 37° C. for 20 hours and resulting medium liquids are employed for said test. Fungi No. 5 to No. 7 are respectively cultured in Sabouraud agar medium and 10^6 cell/ml of cell dispersing liquids obtained from said medium are employed for said test.

The subject of test [2] is Staphylococcus aureus FDA-209-P. The test can be described thus: MIC, agar medium containing the compound. Conditions: bacterium No. 3, 37° C., 4 hours. The protocol:
as §1
No. 3 Staphylococcus aureus FDA-209-P
as §2

For test [3], the system named is Bacillus subtilis PCI-219. The test can be described thus: MIC, agar medium containing the compound. To be noted: bacterium No. 4, 37° C., 4 hours. The protocol: as §1
No. 4 Bacillus subtilis PCI-219
as §2

The subject of test [4] is bacteria No. 1 to No. 4 and fungi No. 5 to No. 7. The test can be described thus: Antifungal and bactericidal activity test, overall assessment of Table 8. Conditions: referring to Table 8. The protocol:
as §1, §2
Referring now to Table 8, in said Examples the halo-salicylanilides provided have respectively remarkable higher antifungal and bactericidal activity than that of the contrasts proposed and said halo-salicylanilidesare especially effective on bacteria No. 3 and No. 4, and fungi No. 5, No. 6 and No. 7. This testifies that alkyl group of 2'-position of the halo-salicylanilides is significant for the activities of the compound. […] Especially the halo-salicylanilides having fluorine in 5-position are very useful for agricultural medicines.

The subject of test [5] is Escherichia coli NIHJ JC-2. Kind of test: MIC, agar medium containing the compound. To be noted: bacterium No. 1, 37° C., 4 hours. The protocol: as §1
No. 1 Escherichia coli NIHJ JC-2
as §2

Test [6] deals with Aspergillus flavus IFO 8558. The test can be described thus: MIC, Sabouraud agar medium containing the compound. To be noted: fungus No. 6, 20° C., 14 days. On the procedure:
as §1
No. 6 Aspergillus flavus IFO 8558
as §2

Test [7] deals with Candida albicans ATCC 10259. The test can be described thus: MIC, Sabouraud agar medium containing the compound. To be noted: fungus No. 5, 20° C., 14 days. The protocol:
as §1
No. 5 Candida albicans ATCC 10259
as §2

The test system of test [8] is Candida albicans ATCC 10259. The test can be described thus: Multiplying state after removal to compound-free medium (scanning electron microscope). To be noted: for multiplying state of the fungi after removal to culture medium without the compound: first cultured in medium containing the compound, then removed, FIG. 1 and FIG. 2.
Test [9] relates to Pseudomonas aeruqinosa NC-5. Kind of test: MIC, agar medium containing the compound. Conditions: bacterium No. 2, 37° C., 4 hours. On the procedure: as §1
No. 2 Pseudomonas aeruqinosa NC-5
as §2

The structures appear in SMILES notation.

For the compound `Cc1cc(Br)ccc1NC(=O)c1cc(I)ccc1O` [compound 5, 5-iodo-2'-methyl-4'-bromo salicylanilide], the “MIC (Minimum Inhibitory Concentration)” value in [1] was 3.2; in test [2], 0.37; in [3], 0.75; in test [5], over 100; in test [6] it was 3.2; in test [7], 3.2. For the same compound, the “antifungal and bactericidal activity (assessment in words)” value (“antifungal and bactericidal activity” below) in [4] was “remarkable antifungal and bactericidal activity”.

For `CCc1cc(Cl)ccc1NC(=O)c1cc(I)ccc1O` [compound 6, 5-iodo-2'-ethyl-4'-chloro salicylanilide], the “MIC (Minimum Inhibitory Concentration)” value in [1] is reported as 3.2; in test [2] it was 0.75; in test [3], 0.75; in test [5] it was over 100; in [6], 3.2; in [7] it was 6.3. Moreover, in test [4], the “antifungal and bactericidal activity” value is “remarkable antifungal and bactericidal activity”.

Regarding `Cc1cc(Cl)ccc1NC(=O)c1cc(I)ccc1O` [compound 3, 5-iodo-2'-methyl-4'-chloro salicylanilide], the “MIC (Minimum Inhibitory Concentration)” value is on record as 6.3 in test [1]; 0.75 in test [2]; 1.5 in test [3]; over 100 in test [5]; 6.3 in test [6]; 6.3 in [7]. For the same compound, in [4], the “antifungal and bactericidal activity” value was “remarkable antifungal and bactericidal activity”. For the same compound, the “multiplying state of the fungi after removal to culture medium without the compound” value in test [8] is reported as “does not start to multiply”. In addition, in test [8] (scanning electron microscope, FIG. 2), the “destruction of the cell membranes of the fungi” value is “destruction of the cell membranes of the fungi is observed”.

As to `O=C(Nc1ccc(Cl)cc1)c1cc(I)cc(I)c1O` [Contrast No. 2, reference compound], the “MIC (Minimum Inhibitory Concentration)” value is 50 in test [1]; over 100 in test [9]; over 100 in test [5]; over 100 in test [6]; 50 in test [7]. Moreover, the “multiplying state of the fungi after removal to culture medium without the compound” value in test [8] is given as “again starts to multiply”.

Regarding `CC(=O)Oc1ccc(I)cc1C(=O)Nc1ccc(Br)cc1C` [compound 13, 5-iodo-2'-methyl-4'-bromo acetylsalicylanilide], the “MIC (Minimum Inhibitory Concentration)” value is 12.5 in test [1]; 0.2 in test [2]; 0.4 in test [3]; 100 in [9]; over 100 in [5]; 100 in [7]. Further, the “antifungal and bactericidal activity” value in test [4] is “remarkable antifungal and bactericidal activity”.
